Experimental data as given in patent publication US20080102121A1 (Elan Pharma International Limited, priority 1998, published 2008).
Counter-ions that a name gives are not always drawn.

Legend:
[1] = in vivo; cited from earlier work
[2] = 10 mg oral dose, five adult males; cited from earlier work
[3] = in vivo; cited from earlier work; remark: listed apart in the source
[4] = Hydrocodone simulations (one-compartment model); details: estimated from non-compartmental parameters
Method: Studies of hydrocodone formulations of the present invention were conducted to simulate the profiles associated with twice-daily administration hydrocodone for both single dose and steady state. […] Non-compartmental parameters were used to find estimates of the unit input response and a one-compartment model was assumed for all simulations.
For the absorption rate constant k01, several profiles were simulated using different estimates of k01.
Options 1 and 2 assumed a first order release and option 3 a zero-order release.

[5] = cited from earlier work

## CC(=O)Nc1ccc(O)cc1 [acetaminophen]
[1]
  doses reported as fatal: 15,000-20,0000 milligrams a day

## COc1ccc2c3c1OC1C(=O)CCC4C(C2)N(C)CC[C@]314 (stereo partly drawn) [Hydrocodone, 4,5a-Epoxy-3-methoxy-1 7-methylmorphinan-6-one tartrate (1:1) hydrate (2:5)]
[2]
  Cmax: 23.6 ± 5.2 ng/mL
  Thalf: 3.8 ± 0.3 h
  Tmax: 1.3 ± 0.3 h
[3]
  half life: 4 to 8 h
[4]
  K10: 0.18
  V/f: 334.29 L

## 4-hydroxy-2-methyl-N-(5-methyl-2-thiazolyl)-2-H-1,2-benzothiazine-3-carboxamide 1,1-dioxide [Meloxicam]
[5]; fasted steady state conditions, post-dose
  time of second meloxicam concentration peak: twelve to fourteen
[5]; single 30 mg oral dose compared to 30 mg intravenous bolus injection
  bioavailability: 89%
